Read-outs that look alike come from different tables or passages of the source. Each block holds one compound with its values, some of them ahead of it.
Assays:
[1] = test system: soybean plants (variety S20-G7); assay: Reduced plant water use in soybean (foliar spray, repeated weighing of pots); type: in vivo; details: Glycine max, foliar, Table B1, sprayed at 500 μM, vs negative control
Method: Compounds were tested for their effect on reducing plant water use as follows. Each compound was dissolved in a blank emulsifiable concentrate (EC) formulation that was then diluted to the desired concentration with water containing additional surfactant (EXTRAVON 1 g/20 L). The compounds were applied by foliar spray to 12 day old soybean plants (variety S20-G7) grown in controlled environment plant growth chambers. Plant water use during the day was assessed by repeated weighing of the pots in which the plants were grown before and after application of the compounds at the indicated times (expressed in days after application (DAA)). The water use data before application was used to correct any differences in water use arising due to non-treatment effects (e.g. due to differences in plant size). The untransformed water use values were subjected to an analysis of covariance, fitting the effect of treatment and using the baseline water use 1 day before application as a covariate.
The results are expressed compared to negative control treatment (diluted EC formulation without active ingredient but with EXTRAVON 1 g/20 L).
Application of the chemicals (0 DAA) takes place approximately between 08:00 and 09:30 a.m. WU is measured within day time (chamber light is on 06:00 to 20:00) at these timepoints: 0 DAA a.m. (10:30-12:50), 0 DAA p.m. (14:00-19:50), 1 DAA a.m. (7:30-12:50), 1 DAA p.m. (14:00-19:50), 2 DAA a.m. (07:30-12:50) and 2 DAA p.m. (14:00-19:50). The cumulative total WU (0-2.5 DAA) is calculated by summing the WU data mentioned above.

[2] = test system: corn plants (variety NK OCTET); assay: Reduced plant water use in corn (foliar spray, repeated weighing of pots); type: in vivo; details: Zea mays, corn plants sprayed at 500 μM, average of 6 pots
Method: Compounds were tested for their effect on reducing plant water use as follows. The compounds were applied by foliar spray to 12 day old corn plants (variety NK OCTET) grown in controlled environment plant growth chambers. All compounds were applied using an emulsifiable concentrate (EC) formulation that was diluted to the desired concentrations with water containing 0.4% of the adjuvant rape seed methyl ester. Plant water use during the day was assessed by repeated weighing of the pots in which the plants were grown before and after application of the compounds at the indicated times (expressed in days after application (DAA)). The water use data before application was used to correct any differences in water use arising due to non-treatment effects (e.g. due to differences in plant size). The untransformed water use values were subjected to an analysis of covariance, fitting the effect of treatment and using the baseline water use 1 day before application as a covariate. Application of the chemicals (0 DAA) takes place approximately between 08:00 and 09:30 a.m. WU is measured within day time (chamber light is on 06:00 to 20:00) at these timepoints: 0 DAA a.m. (10:30-12:50), 0 DAA p.m. (14:00-19:50), 1 DAA a.m. (07:30-12:50), 1 DAA p.m. (14:00-19:50), 2 DAA a.m. (07:30-12:50) and 2 DAA p.m. (14:00-19:50). The cumulative total WU (0-2.5 DAA) is calculated by summing the WU data mentioned above.

[3] = 0 h, 0 DAA a.m. (10:30-12:50), read-out: % WU 0 DAA AM
[4] = 24 h, 1 DAA a.m. (7:30-12:50), read-out: % WU 1DAA AM
[5] = 24 h, 1 DAA p.m. (14:00-19:50), read-out: % WU 1DAA PM
[6] = 48 h, 2 DAA a.m. (07:30-12:50), read-out: % WU 2 DAA AM
[7] = 48 h, 2 DAA p.m. (14:00-19:50), read-out: % WU 2 DAA PM
[8] = 60 h, cumulative total WU (0-2.5 DAA), read-out: % WU Total 0 to 2.5 DAA
[9] = 0 h, water use during day time vs negative control, 0 DAA a.m. (10:30-12:50), read-out: % WU 0 DAA AM
[10] = 0 h, water use during day time vs negative control, 0 DAA p.m. (14:00-19:50), read-out: % WU 0DAA PM
[11] = 24 h, water use during day time vs negative control, 1 DAA a.m. (07:30-12:50), read-out: % WU 1DAA AM
[12] = 24 h, water use during day time vs negative control, 1 DAA p.m. (14:00-19:50), read-out: % WU 1DAA PM
[13] = 48 h, water use during day time vs negative control, 2 DAA a.m. (07:30-12:50), read-out: % WU 2 DAA AM
[14] = 48 h, water use during day time vs negative control, 2 DAA p.m. (14:00-19:50), read-out: % WU 2 DAA PM
[15] = 60 h, cumulative total water use 0-2.5 DAA (sum of the time points) vs negative control, read-out: % WU Total 0 to 2.5 DAA

- melting point: 166 to 167 °C
SMILES: CCCN1C(=O)CCc2cc(CNS(=O)(=O)c3ccc(C)cc3C)ccc21

- melting point: 203 to 206 °C
SMILES: CCN1C(=O)CCc2cc(CNS(=O)(=O)c3ccccc3C)ccc21 [Compound 2.011, N-[(1-ethyl-2-oxo-3,4-dihydroquinolin-6-yl)methyl]-2-methyl-benzenesulfonamide]

- melting point: 202 to 203 °C
SMILES: CCN1C(=O)CCc2cc(CNS(=O)(=O)c3ccc(C)cc3)ccc21 [Compound 2.012, N-[(1-ethyl-2-oxo-3,4-dihydroquinolin-6-yl)methyl]-4-methyl-benzenesulfonamide]

- melting point: 206 to 207 °C
SMILES: CCN1C(=O)CCc2cc(CNS(=O)(=O)c3ccccc3Br)ccc21 [Compound 2.017, 2-bromo-N-[(1-ethyl-2-oxo-3,4-dihydroquinolin-6-yl)methyl]benzenesulfonamide]

- melting point: 104 to 106 °C
SMILES: CCN1C(=O)CCc2cc(CNS(=O)(=O)C3CC3)ccc21 [Compound 2.018, N-[(1-ethyl-2-oxo-3,4-dihydroquinolin-6-yl)methyl]cyclopropanesulfonamide]

- melting point: 119 to 124 °C
SMILES: CCN1C(=O)CCc2cc(CNS(=O)(=O)/C=C/c3ccc(Br)cc3)ccc21 [Compound 2.052, (E)-2-(4-bromophenyl)-N-[(1-ethyl-2-oxo-3,4-dihydroquinolin-6-yl)methyl]ethenesulfonamide]

- melting point: 151 to 153 °C
SMILES: CCN1C(=O)CCc2cc(CNS(=O)(=O)/C=C/c3ccc(C)cc3)ccc21 [Compound 2.059, (E)-N-[(1-ethyl-2-oxo-3,4-dihydroquinolin-6-yl)methyl]-2-(p-tolyl)ethenesulfonamide]

- melting point: 165 to 167 °C
SMILES: CCN1C(=O)CCc2cc(CNS(=O)(=O)c3cn(C)cn3)ccc21 [Compound 2.063, N-[(1-ethyl-2-oxo-3,4-dihydroquinolin-6-yl)methyl]-1-methyl-imidazole-4-sulfonamide]

- melting point: 198 to 201 °C
SMILES: CCN1C(=O)CCc2cc(CNS(=O)(=O)c3cc(Cl)sc3Cl)ccc21 [Compound 2.064, 2,5-dichloro-N-[(1-ethyl-2-oxo-3,4-dihydroquinolin-6-yl)methyl]thiophene-3-sulfonamide]

- melting point: 138 to 140 °C
SMILES: CCCN1C(=O)CCc2cc(CNS(=O)(=O)c3ccc(C(F)(F)F)cc3)ccc21 [Compound 3.015, N-[(2-oxo-1-propyl-3,4-dihydroquinolin-6-yl)methyl]-4-(trifluoromethyl)benzenesulfonamide]

- melting point: 172 to 174 °C
SMILES: CCCN1C(=O)CCc2cc(CNS(=O)(=O)/C=C/c3ccc(C)cc3)ccc21 [Compound 3.059, (E)-N-[(2-oxo-1-propyl-3,4-dihydroquinolin-6-yl)methyl]-2-(p-tolyl)ethenesulfonamide]

- melting point: 148 to 153 °C
SMILES: CCCN1C(=O)CCc2cc(CNS(=O)(=O)/C=C/c3cccc(Br)c3)ccc21 [Compound 3.070, (E)-2-(3-bromophenyl)-N-[(2-oxo-1-propyl-3,4-dihydroquinolin-6-yl)methyl]ethenesulfonamide]

SMILES: CCCN1C(=O)CCc2cc(C3(NS(=O)(=O)c4ccc(F)cc4F)CC3)ccc21 [Compound 15.006, 2,4-difluoro-N-[1-(2-oxo-1-propyl-3,4-dihydroquinolin-6-yl)cyclopropyl]benzenesulfonamide]
- change in vivo at 500 µM [1, 3]: -32.6%
- change in vivo at 500 µM [1, 4]: -23.6%
- change in vivo at 500 µM [1, 5]: -24.4%
- change in vivo at 500 µM [1, 6]: -17%
- change in vivo at 500 µM [1, 7]: -17.8%
- change in vivo at 500 µM [1, 8]: -23.8%
- change in vivo at 500 µM [2, 9]: -10.2%
- change in vivo at 500 µM [2, 10]: -3%
- change in vivo at 500 µM [2, 11]: -1.4%
- change in vivo at 500 µM [2, 12]: 0.1%
- change in vivo at 500 µM [2, 13]: 1.7%
- change in vivo at 500 µM [2, 14]: 1.1%
- change in vivo at 500 µM [2, 15]: -1.2%

SMILES: CCN1C(=O)CC(C)c2cc(CNS(=O)(=O)c3ccccc3)ccc21 (centres unmarked) [Compound 20.001, N-[(1-ethyl-4-methyl-2-oxo-3,4-dihydroquinolin-6-yl)methyl]benzenesulfonamide]
- change in vivo at 500 µM [1, 3]: -50.1%
- change in vivo at 500 µM [1, 4]: -58.5%
- change in vivo at 500 µM [1, 5]: -55.2%
- change in vivo at 500 µM [1, 6]: -55.8%
- change in vivo at 500 µM [1, 7]: -50.5%
- change in vivo at 500 µM [1, 8]: -54.4%
- change in vivo at 500 µM [2, 9]: -21.7%
- change in vivo at 500 µM [2, 10]: -18.3%
- change in vivo at 500 µM [2, 11]: -19.2%
- change in vivo at 500 µM [2, 12]: -10.3%
- change in vivo at 500 µM [2, 13]: -8.1%
- change in vivo at 500 µM [2, 14]: -5.5%
- change in vivo at 500 µM [2, 15]: -12.9%

From patent US10392348B2, “2-oxo-3,4-dihydroquinoline compounds as plant growth regulators” (Syngenta Participations AG, priority 2015, dated 2019)
